Assay results: patent US20080227748A1, “Medicament Made From Laminarine or Oligolaminarines For Treatment of Septicemia and Septic Shock” (LABORATOIRES GOEMAR, priority 2005, published 2008)

Assay: Feeding treatment with Dectinan-enriched diet before injection of LPS (weight, consumption, glycemia, triglyceridemia, feces)
Set-up: species or system male Wistar Han rats
Settings: rat, in vivo
Description: The animals selected for the abovesaid studies were male Wistar Han rats (Harlem, Netherlands).
The experiments were carried out on two groups of eight rats each.
The rats of one of the two groups—“control group”—had available to them “ad libitum” a standard feed with the AO4 trade name (UAR, France); the rats of the other group had available to them the same feed but supplemented with the above said laminarin, sold under the “Dectinan” trade name; in a first phase and for four days (−4 to −1), the feed was enriched with 5% by weight of Dectinan and then with 10% by weight in a second phase of 21 days (days 0 to 21); this second group of rats is denoted by “Dectinan group”.
The days on which the various withdrawals and measurements are made are identified in table I below.
a) Before injection of LPS • bodyweight • weight of wet feces and feces after freeze drying (collected over 24 h) • weight of the diet and of the drinking water • taking of blood from the caudal vein: quantitative determination of triglycerides and glucose
In this regard, the values mentioned later represent the mean ±SDM (Standard Deviation of the Mean). […]

laminarin [Dectinan®]
Total consumption of drinking water: 611.5 ± 17.9 mL
Total consumption of feed: 431.5 ± 6.0 g
